Marks after values point to notes of the source that are not given here.
Test system: peritoneal macrophages
Experiment: Phagocytic function of peritoneal macrophages ex vivo in CFLP outbred mice (CY-immunosuppressed)
From the text: 6.2./Examination of the Effect on the Phagocytic Function of Peritoneal Macrophages CFLP Outbred in Mice
Macrophage phagocytosis ex vivo (X=yeast/100 cells)

O=P1(N(CCCl)CCCl)NCCCO1 (centres unmarked) [CY]
phagocytic activity of macrophages (CY immunosuppression, 1.0 mg/kg/sc (TP3), in words): significantly inhibited | macrophage phagocytosis ex vivo (CY p.o. alone, n = 15, untreated control 194.5): 111.5* yeast/100 cells

From patent US20260315564A1, “THE USE OF TP3 (THYMOPENTIN ANALOG) BY INCREASING THE ACTIVITY AND NUMBER OF T-CELLS INVOLVED IN THE DEFENSE MECHANISM OF THE IMMUNE SYSTEM OF MAMMALS, FOR THE PREVENTION OR TREATMENT OF DISEASES TO EXTEND THE AVERAGE LIFESPAN” (priority 2023, published 2026)
